Measured values: patent US20190135793A1, “HETEROCYCLIC INHIBITORS OF KDM5 FOR THE TREATMENT OF DISEASE” (Board of Regents, The University of Texas System, priority 2017, published 2019)
Like-named read-outs stand apart in the source and are kept apart here.

Tests used:
KDM5B = target: T1, KDM5B (Homo sapiens, UniProt Q9UGL1); test: biochemical
T1 construct: Full length of KDM5B and KDM4C protein were purchased from Active Motif; purchased Active Motif 31832
Summary of the method: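 KDM5B (0.5 nM final) was preincubated with compound for 15 min at room temperature, then reacted with biotinylated peptide (3 nM final) for 25 min at room temperature.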

KDM4C = target: T2, KDM4C (Homo sapiens, UniProt Q9H3R0); test: KDM4C AlphaScreen assay; format: biochemical; conditions: AlphaScreen; full length KDM4C 0.2 nM; biotinylated H3K9Me3 peptide 3 nM; 30 minutes at room temperature
T2 construct: Full length of KDM5B and KDM4C protein were purchased from Active Motif; purchased Active Motif 31858
T2 sequence (Q9H3R0 1-1056): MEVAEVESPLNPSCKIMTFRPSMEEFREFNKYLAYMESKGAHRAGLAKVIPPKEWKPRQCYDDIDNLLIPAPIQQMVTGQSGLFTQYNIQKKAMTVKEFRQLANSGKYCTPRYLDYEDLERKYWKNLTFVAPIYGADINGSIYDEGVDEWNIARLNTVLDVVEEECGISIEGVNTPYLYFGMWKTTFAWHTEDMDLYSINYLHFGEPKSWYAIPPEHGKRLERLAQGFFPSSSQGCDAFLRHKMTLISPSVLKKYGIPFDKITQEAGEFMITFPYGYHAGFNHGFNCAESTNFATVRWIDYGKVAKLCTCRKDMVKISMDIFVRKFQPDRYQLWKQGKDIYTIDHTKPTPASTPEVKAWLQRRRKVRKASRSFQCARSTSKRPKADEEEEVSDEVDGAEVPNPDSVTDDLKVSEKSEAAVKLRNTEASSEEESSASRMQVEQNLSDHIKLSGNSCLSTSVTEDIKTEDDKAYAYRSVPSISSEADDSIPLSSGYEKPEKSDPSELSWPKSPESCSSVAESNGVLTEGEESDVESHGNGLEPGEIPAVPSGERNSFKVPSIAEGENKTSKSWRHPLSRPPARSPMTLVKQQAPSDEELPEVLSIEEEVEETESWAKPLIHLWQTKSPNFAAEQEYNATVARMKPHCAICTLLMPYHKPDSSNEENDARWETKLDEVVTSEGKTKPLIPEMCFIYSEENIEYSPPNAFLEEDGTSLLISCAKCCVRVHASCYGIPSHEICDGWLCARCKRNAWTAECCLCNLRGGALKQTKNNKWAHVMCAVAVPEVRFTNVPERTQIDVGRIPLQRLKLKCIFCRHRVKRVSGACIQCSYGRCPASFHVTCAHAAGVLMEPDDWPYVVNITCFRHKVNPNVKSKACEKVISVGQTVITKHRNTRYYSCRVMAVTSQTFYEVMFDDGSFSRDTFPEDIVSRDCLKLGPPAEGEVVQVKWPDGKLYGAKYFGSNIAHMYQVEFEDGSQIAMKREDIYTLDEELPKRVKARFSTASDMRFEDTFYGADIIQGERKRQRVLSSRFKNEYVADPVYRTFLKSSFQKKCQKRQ
Summary of the method: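 Full-length KDM4C (0.2 nM final) was preincubated 15 min at RT with compound in HEPES pH 7.4 with Tween-20, BSA and TCEP. The reaction ran 30 min at RT after adding biotinylated peptide (3 nM final) in buffer with Fe(II), α-ketoglutarate and ascorbate. EDTA-containing AlphaScreen beads stopped it; IC50 was curve-fitted.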

[1] = AlphaScreen, full length KDM5B 0.5 nM, biotinylated H3K4Me3 peptide 3 nM, 25 minutes at room temperature, read-out: KDM5B (IC50)

T1 sequence (Q9UGL1 whole entry): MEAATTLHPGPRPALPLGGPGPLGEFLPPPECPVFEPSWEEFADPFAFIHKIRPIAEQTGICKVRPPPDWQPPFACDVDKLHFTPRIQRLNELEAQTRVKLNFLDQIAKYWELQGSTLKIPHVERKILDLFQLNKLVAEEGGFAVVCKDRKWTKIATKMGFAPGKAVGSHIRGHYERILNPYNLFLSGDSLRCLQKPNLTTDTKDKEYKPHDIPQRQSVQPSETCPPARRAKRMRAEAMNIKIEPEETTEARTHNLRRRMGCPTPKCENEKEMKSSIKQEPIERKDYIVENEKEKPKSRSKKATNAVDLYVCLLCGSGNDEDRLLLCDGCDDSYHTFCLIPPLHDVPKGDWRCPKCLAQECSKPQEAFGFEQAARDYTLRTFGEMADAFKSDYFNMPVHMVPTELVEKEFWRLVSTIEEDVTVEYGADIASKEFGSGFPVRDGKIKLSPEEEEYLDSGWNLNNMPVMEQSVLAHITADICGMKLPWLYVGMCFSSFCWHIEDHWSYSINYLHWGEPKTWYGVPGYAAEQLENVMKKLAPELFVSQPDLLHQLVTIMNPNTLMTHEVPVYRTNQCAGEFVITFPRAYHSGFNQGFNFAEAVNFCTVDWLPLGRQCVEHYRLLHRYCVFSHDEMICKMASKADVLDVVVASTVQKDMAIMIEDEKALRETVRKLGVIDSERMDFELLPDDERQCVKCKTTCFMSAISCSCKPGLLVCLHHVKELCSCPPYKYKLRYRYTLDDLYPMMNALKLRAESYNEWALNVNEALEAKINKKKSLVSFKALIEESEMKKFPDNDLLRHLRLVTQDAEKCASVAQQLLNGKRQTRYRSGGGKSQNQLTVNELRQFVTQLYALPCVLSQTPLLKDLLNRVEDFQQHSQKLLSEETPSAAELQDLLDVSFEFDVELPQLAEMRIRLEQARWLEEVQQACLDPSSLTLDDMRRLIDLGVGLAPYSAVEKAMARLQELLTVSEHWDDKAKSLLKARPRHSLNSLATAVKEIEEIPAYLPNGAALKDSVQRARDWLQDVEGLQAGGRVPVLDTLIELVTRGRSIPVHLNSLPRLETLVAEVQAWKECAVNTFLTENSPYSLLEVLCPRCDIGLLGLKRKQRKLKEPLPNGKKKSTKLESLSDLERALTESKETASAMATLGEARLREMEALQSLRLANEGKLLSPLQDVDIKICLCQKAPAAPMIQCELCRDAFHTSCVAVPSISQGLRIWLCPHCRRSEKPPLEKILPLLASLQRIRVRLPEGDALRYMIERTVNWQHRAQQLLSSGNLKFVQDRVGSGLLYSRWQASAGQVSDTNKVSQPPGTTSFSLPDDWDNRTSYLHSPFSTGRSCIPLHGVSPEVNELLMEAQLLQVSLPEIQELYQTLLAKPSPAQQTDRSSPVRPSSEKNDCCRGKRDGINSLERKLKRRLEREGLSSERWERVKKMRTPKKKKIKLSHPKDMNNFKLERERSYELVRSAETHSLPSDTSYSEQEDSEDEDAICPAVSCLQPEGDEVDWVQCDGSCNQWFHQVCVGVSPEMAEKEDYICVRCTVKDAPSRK

| SMILES | IC50 (KDM5B) [nM] | IC50 (KDM4C) [nM] | IC50 (KDM5B; [1]) [nM] |
| --- | --- | --- | --- |
| CC(C)c1c(O)nc(-n2ccnc2-c2ccccn2)nc1-c1cnn(C(C)C)c1 [Example 3, 5-(Propan-2-yl)-6-[1-(propan-2-yl)-1H-pyrazol-4-yl]-2-[2-(pyridin-2-yl)-1H-imidazol-1-yl]pyrimidin-4-ol] | 372 | 9680 |  |
| CC(C)c1c(O)nc(-n2ccnc2)nc1-c1ccc(S(C)(=O)=O)cc1 [Example 69, 2-(1H-Imidazol-1-yl)-6-(4-methanesulfonylphenyl)-5-(propan-2-yl)pyrimidin-4-ol] | 22 | 2060 |  |
| CC(C)c1c(O)nc(-c2cncs2)nc1OCc1cncnc1 [Example 143, 5-(Propan-2-yl)-6-(pyrimidin-5-ylmethoxy)-2-(1,3-thiazol-5-yl)pyrimidin-4-ol] | 138 | 2960 |  |
| CNC(=O)Cn1cc(-c2nc(-n3ccnc3)nc(O)c2C(C)C)cn1 [Example 113, 2-{4-[6-Hydroxy-2-(1H-imidazol-1-yl)-5-(propan-2-yl)pyrimidin-4-yl]-1H-pyrazol-1-yl)-N-methyl-acetamide] | 24 | 2090 |  |
| Cc1nc(-c2ccncc2)nc(O)c1C(C)C [Example 149, 6-Methyl-5-(propan-2-yl)-2-(pyridin-4-yl)pyrimidin-4-ol] | 3320 | 50000 |  |
| Cc1nc(-c2cncn2C)nc(O)c1C(C)C [Example 31, 6-methyl-2-(1-methyl-1H-imidazol-5-yl)-5-(propan-2-yl)pyrimidin-4-ol] | 74 | 5680 |  |
| CC(C)c1c(O)nc(-c2cncs2)nc1OCc1ccncc1 [Example 144, 5-(Propan-2-yl)-6-(pyridin-4-ylmethoxy)-2-(1,3-thiazol-5-yl)pyrimidin-4-ol] |  | 2920 | 140 |
| CC(C)c1c(O)nc(-n2ccnc2)nc1-c1cccc(CO)c1 [Example 77, 6-[3-(Hydroxymethyl)-phenyl]-2-(1H-imidazol-1-yl)-5-(propan-2-yl)pyrimidin-4-ol] | 38 | 2460 |  |
| CC(C)c1c(O)nc(-n2ccnc2)nc1OCC(=O)NCc1cccnc1 [Example 141, 2-{[6-Hydroxy-2-(1H-imidazol-1-yl)-5-(propan-2-yl)pyrimidin-4-yl]oxy}-N-(pyridin-3-ylmethyl)-acetamide] |  | 4400 | 33 |
| CNC(=O)c1ccc(-c2nc(-n3ccnc3)nc(O)c2C(C)C)cn1 [Example 120, 5-[6-Hydroxy-2-(1H-imidazol-1-yl)-5-(propan-2-yl)pyrimidin-4-yl]-N-methyl-pyridine-2-carboxamide] |  | 2190 | 18 |
| COCCn1cc(-c2nc(-n3ccnc3)nc(O)c2C(C)C)cn1 [Example 51, 2-(1H-Imidazol-1-yl)-6-[1-(2-methoxyethyl)-1H-pyrazol-4-yl]-5-(propan-2-yl)pyrimidin-4-ol] | 14 | 1960 |  |
| CC(C)c1c(O)nc(-n2ccnc2)nc1OCc1ccncn1 [Example 136, 2-(1H-Imidazol-1-yl)-5-(propan-2-yl)-6-(pyrimidin-4-ylmethoxy)pyrimidin-4-ol] | 55 | 2410 |  |
| CC(C)c1c(O)nc(-c2cncs2)nc1-c1cnn(Cc2ccccc2)c1 [Example 20, 6-(1-Benzyl-1H-pyrazol-4-yl)-5-(propan-2-yl)-2-(1,3-thiazol-5-yl)pyrimidin-4-ol] | 100 | 11200 |  |
| CC(C)c1c(O)nc(-n2ccnc2)nc1-c1cccc(S(C)(=O)=O)c1 [Example 72, 2-(1H-Imidazol-1-yl)-6-(3-methanesulfonylphenyl)-5-(propan-2-yl)pyrimidin-4-ol] |  | 4470 | 24 |
| CC(C)c1c(O)nc(-n2ccnc2)nc1OCCN1CCCCC1 [Example 130, 2-(1H-Imidazol-1-yl)-6-[2-(piperidin-1-yl)ethoxy]-5-(propan-2-yl)pyrimidin-4-ol] | 27 | 3670 |  |
| CC(C)c1c(O)nc(-n2ccnc2)nc1-c1cnn(CC(=O)NCCN(CC(F)(F)F)C2CC2)c1 [Example 111, N-[2-[Cyclopropyl(2,2,2-trifluoroethyl)amino]ethyl}-2-{4-[6-hydroxy-2-(1H-imidazol-1-yl)-5-(propan-2-yl)pyrimidin-4-yl]-1H-pyrazol-1-yl}acetamide] | 21 | 2120 |  |
| CC(C)c1c(O)nc(-c2cncs2)nc1OCc1cccnc1 [Example 19, 5-(propan-2-yl)-6-(pyridin-3-ylmethoxy)-2-(1,3-thiazol-5-yl)pyrimidin-4-ol] | 91 | 1790 |  |
| CC(C)c1c(O)nc(-n2ccnc2)nc1-c1cnn(CCO)c1 [Example 80, 6-[1-(2-Hydroxyethyl)-1H-pyrazol-4-yl]-2-(1H-imidazol-1-yl)-5-(propan-2-yl)-pyrimidin-4-ol] | 51 | 3490 |  |
| CC(C)c1c(O)nc(-n2ccnc2-c2ccccn2)nc1Cl [Example 2, 6-Chloro-5-(propan-2-yl)-2-[2-(pyridin-2-yl)-1H-imidazol-1-yl]pyrimidin-4-ol] | 229 | 3890 |  |
| CC(C)c1c(O)nc(-c2cncs2)nc1-c1cnn(C)c1 [Example 30, 5-isopropyl-6-(1-methyl-1H-pyrazol-4-yl)-2-(thiazol-5-yl)pyrimidin-4-ol] | 345 | 15300 |  |

Now those with a lower IC50 (KDM4C), led by results:

| IC50 (KDM5B) [nM] | IC50 (KDM4C) [nM] | IC50 (KDM5B; [1]) [nM] | SMILES |
| --- | --- | --- | --- |
| 18 | 1540 |  | CC(C)c1c(O)nc(-n2ccnc2)nc1-c1cnn(Cc2ccccc2)c1 [Example 63, 6-(1-Benzyl-1H-pyrazol-4-yl)-2-(1H-imidazol-1-yl)-5-(propan-2-yl)pyrimidin-4-ol] |
| 11 | 1490 |  | CC(C)c1c(O)nc(-n2ccnc2)nc1CCc1cccnc1 [Example 10b, 2-(1H-imidazol-1-yl)-5-(propan-2-yl)-6-[2-(pyridin-3-yl)ethyl]pyrimidin-4-ol] |
|  | 1480 | 17 | CC(C)c1c(O)nc(-n2ccnc2)nc1-c1ccc(S(=O)(=O)N(C)C)cc1 [Example 61, 4-[6-Hydroxy-2-(1H-imidazol-1-yl)-5-(propan-2-yl)pyrimidin-4-yl]-N,N-dimethylbenzene-1-sulfonamide] |
| 25 | 1350 |  | CC(C)CCn1cc(-c2nc(-n3ccnc3)nc(O)c2C(C)C)cn1 [Example 73, 2-(1H-Imidazol-1-yl)-6-[1-(3-methylbutyl)-1H-pyrazol-4-yl]-5-(propan-2-yl)pyrimidin-4-ol] |
|  | 1240 | 27 | CC(C)c1c(O)nc(-n2ccnc2)nc1-c1cnn(C(C)(C)C)c1 [Example 75, 6-(1-tert-Butyl-1H-pyrazol-4-yl)-2-(1H-imidazol-1-yl)-5-(propan-2-yl)pyrimidin-4-ol] |
| 15 | 996 |  | CCCn1cc(-c2nc(-n3ccnc3)nc(O)c2C(C)C)cn1 [Example 56, 2-(1H-Imidazol-1-yl)-5-(propan-2-yl)-6-(1-propyl-1H-pyrazol-4-yl)pyrimidin-4-ol] |
|  | 975 | 58 | CC(C)c1c(O)nc(-n2ccnc2)nc1OCCN(C)C [Example 137, 6-[2-(Dimethylamino)-ethoxy]-2-(1H-imidazol-1-yl)-5-(propan-2-yl)pyrimidin-4-ol] |
| 4 | 554 |  | CC(C)c1c(O)nc(-n2ccnc2)nc1-c1ccc(CN)cc1 [Example 42, 6-[4-(Aminomethyl)phenyl]-2-(1H-imidazol-1-yl)-5-(propan-2-yl)pyrimidin-4-ol] |
| 6 | 525 |  | CC(C)c1c(O)nc(-n2ccnc2)nc1-c1cnn(CC(=O)NCCN2CCC(O)CC2)c1 [Example 92, 2-{4-[6-Hydroxy-2-(1H-imidazol-1-yl)-5-(propan-2-yl)pyrimidin-4-yl]-1H-pyrazol-1-yl}-N-[2-(4-hydroxypiperidin-1-yl)ethyl]-acetamide] |
|  | 410 | 4 | CC(C)c1c(O)nc(-n2ccnc2)nc1-c1cnn(CC(=O)NCCCN(C)C)c1 [Example 90, N-[3-(Dimethylamino)-propyl]-2-{4-[6-hydroxy-2-(1H-imidazol-1-yl)-5-(propan-2-yl)pyrimidin-4-yl]-1H-pyrazol-1-yl}acetamide] |
